The values that follow come from patent US8722703B2, “Fused amino pyridines for the treatment of brain tumors” (Curis, Inc., priority 2009, dated 2014).

One data set concerns the target HSP90 (Homo sapiens, UniProt P07900). The data set is described as follows: HSP90 competition binding (fluorescence polarization) assay. The source says:
(b) HSP90 Competition Binding (Fluorescence Polarization) Assay.
A fluorescein isothiocyanate (FITC) labeled GM was purchase from InvivoGen (ant-fgl-1). The interaction between HSP90 and labeled GM forms the basis for the fluorescence polarization assay. A free and fast-tumbling FITC labeled GM emits random light with respect to the plane of polarization plane of excited light, resulting in a lower polarization degree (mP) value. When GM is bound to HSP90, the complex tumble slower and the emitted light is polarized, resulting in a higher mP value. […] The assay buffer contained 20 mM HEPES (pH 7.3), 50 mM KCl, 1 mM DTT, 50 mM MgCl2, 20 mM Na2MoO4, 0.01% NP40 with 0.1 mg/ml bovine gamma-globulin.
On the technique in general: Polarisation of emitted light reports the rotation of a fluorescent probe.

The nature of data set [1]: Mouse brain concentrations after oral 30 mg/Kg in nude mice with U87MG xenografts. To be noted: oral (30 mg/Kg) delivery, U87MG xenografts; for concentration at 0 hr / concentration at 0.5 hr / concentration at 1 hr / concentration at 3 hr / concentration at 6 hr / concentration at 24 hr: female, athymic nude (CD-1 nu/nu), mouse, brain, read-out: HSP90 Compounds in Mouse Brain. The format is in vivo.

For data set [2], the system named is H1975 orthotopic lung tumor. The data set is described as follows: Efficacy study in the H1975 orthotopic lung tumor (NSCLC) model. In kind it is in vivo, nude mice. To be noted: Compound-15 120 mg/kg orally once every two days, erlotinib 50 mg/kg orally once a day, 5 wk. As for the experimental part: Dose-dependent efficacy study of Compound-15 in H1975 orthotopic lung tumor model (n=11): Mice were treated with Compound-15 (20, 40, 80, and 120 mg/kg) starting 4 day after tumor implantation.

The subject of data set [3] is A549 orthotopic lung tumor. The data set is described as follows: Efficacy study in A549 orthotopic lung tumor model. The format is in vivo, nude mice. To be noted: Compound-15 120 mg/kg orally once every two days, erlotinib 50 mg/kg orally once a day, 4 wk.
Another data set relates to H1975 intracranial tumor. Nature of the data set: Efficacy study in H1975 intracranial metastasis model. In kind it is in vivo, nude mice. To be noted: Compound-15 120 mg/kg orally once every two days, lapatinib 75 mg/kg orally twice a day, 4 wk.

What is called IC50 is the concentration that gives 50% inhibition. Lower therefore signals higher potency. `CC(C)(C)CNCCCn1c(Sc2cc3c(cc2Br)OCO3)nc2c(N)nccc21` [Compound 10] came in with a 50% inhibitory concentration (IC50) at HSP90 of 0.1 to 1 µM.

Consider `CC(C)(C)CNCCCn1c(Sc2cc3c(cc2I)OCO3)nc2c(N)nccc21` [Compound 11, 2-(6-iodobenzo[d][1,3]dioxol-5-ylthio)-1-(3-(neopentylamino)propyl)-1H-imidazo[4,5-c]pyridin-4-amine], for which, at HSP90, the half-inhibitory concentration (IC50) fell in the range of 0.1 to 1 µM.

On to `NC(=O)CCCn1c(Sc2cc3c(cc2I)OCO3)nc2c(N)nccc21` [Compound 22], for which, in data set [1], the concentration at 0 hr is 0 ng/g, the concentration at 0.5 hr was determined as 2.5 ng/g, the concentration at 1 hr was found to be 2.2 ng/g and the concentration at 3 hr was 3.7 ng/g. In data set [1], the concentration at 6 hr came to 0.9 ng/g, the concentration at 24 hr is 1.3 ng/g and the “AUC in mouse brain” value was determined as 36.7 ng·h/g.

Take `CC(C)(C)CNCCn1c(Sc2cc3c(cc2S(C)(=O)=O)OCO3)nc2c(N)nccc21` [Compound 23]: in data set [1], the concentration at 0 hr was found to be 0 ng/g, the concentration at 0.5 hr was found to be 5.4 ng/g, the concentration at 1 hr was found to be 13.6 ng/g and the concentration at 3 hr is 21.5 ng/g. In data set [1], the concentration at 6 hr was found to be 9.1 ng/g, the concentration at 24 hr came out at 3 ng/g and the “AUC in mouse brain” value was determined as 231.8 ng·h/g.

With `C#Cc1cccc(Nc2ncnc3cc(OCCOC)c(OCCOC)cc23)c1` [erlotinib, reference compound], the animal survival entry is reported as “no therapeutic benefit” in data set [2] and “no antitumor effect” in data set [3].

For the compound `CS(=O)(=O)CCNCc1ccc(-c2ccc3ncnc(Nc4ccc(OCc5cccc(F)c5)c(Cl)c4)c3c2)o1` [lapatinib, reference compound], in the data set with H1975 intracranial tumor, the animal survival entry is listed as “lack of lapatinib efficacy”.
